Results taken from US12030841B2, “Honokiol crystal forms, amorphous form and preparation thereof” (Chengdu Jinrui Foundation Biotech Co., Ltd., priority 2020, dated 2024).
≈ marks a conversion by molar mass, not a printed value.

Columns and labels:
[1] = Solubility test in PBS (saturated solution, HPLC external standard); type: physicochemical; conditions: shaking at 37 °C for 4 h, supernatant by HPLC
Protocol: Since the solubility of the drug directly affects the dissolution and oral bioavailability of the drug preparation, the inventor investigated the solubility of the honokiol crystal forms A, B and C in PBS. Preparing respective saturated solutions of the honokiol crystal forms A, B and C, shaking at 37 °C for 4 h, and centrifuging and transferring the supernatant into a high performance liquid chromatograph. At the same time, preparing a standard solution of the honokiol (source: China Institutes for Food and Drug Control, Batch No.: 110730-201915, ID: EH2H-BMTW), and using the external standard method for quantification.

[2] = Stress tests (high temperature, high humidity, high-light irradiation), related substances by HPLC; type: physicochemical; conditions: for purity after the high humidity test: high humidity (relative humidity 92.5%, 25° C.); for purity after the high temperature test: high temperature (60° C.); for purity after intense light / high-light irradiation test: high-light irradiation (illuminance 45001×+5001×)
Protocol: Treating the honokiol crystal forms A, B and C under high temperature (60° C.), high humidity (relative humidity 92.5%, 25° C.) and high-light irradiation (illuminance 45001×+5001×), respectively, diluting with methanol, and investigating the changes of related substances through testing with HPLC.

| Structure (SMILES) | solubility [1] | purity before the stress test [2] | purity after the high humidity test [2] | purity after the high temperature test [2] | purity after intense light / high-light irradiation test [2] | solubility at 4 h ([1]; PBS, 37 °C, aqueous buffer, thermodynamic from solid) |
| --- | --- | --- | --- | --- | --- | --- |
| C=CCc1ccc(O)c(-c2ccc(O)c(CC=C)c2)c1 [honokiol crystal form C, 3′,5-di-2-propenyl-1,1′-biphenyl-2,4′-diphenol] | 48.12 µg/mL (≈ 181 µM) | 99.86% | 99.59% | 99.36% | 99.31% |  |
| C=CCc1ccc(O)c(-c2ccc(O)c(CC=C)c2)c1 [honokiol crystal form A, 3′,5-di-2-propenyl-1,1′-biphenyl-2,4′-diphenol] | 41.35 µg/mL (≈ 155 µM) | 99.83% | 99.67% | 99.63% | 99.64% |  |
| C=CCc1ccc(O)c(-c2ccc(O)c(CC=C)c2)c1 [honokiol crystal form B, 3′,5-di-2-propenyl-1,1′-biphenyl-2,4′-diphenol] |  | 99.88% | 99.70% | 99.70% | 99.60% | 43.7 µg/mL (≈ 164 µM) |
